Experimental data taken from patent US11466034B2, “Compound functioning as bromodomain protein inhibitor, and composition” (Betta Pharmaceuticals Co., Ltd., priority 2017, dated 2022).
pIC50: −log10 of the molar value.

Assays:
BRD4(D1) = BRD4(D1) (Homo sapiens (Human), UniProt O60885); assay: Inhibitory activity against BRD4(D1), HTRF assay; type: binding
Experimental: (§1) (+)-JQ1 was used as comparison compound, to evaluated the inhibitory activity of compounds of the invention against BRD4(D1) and BRD4(D2) in vitro.
(§2) The assays of BRD4 (D1) and BRD4 (D2) were conducted in a 384-well polystyrene plate. The test compounds were first serially diluted in DMSO and the test compound/DMSO were transferred to 384-well plates. The final concentration of DMSO in the assay was 0.1%. 2 volumes of protein/peptide mixture were added into 384-well plates, then 2 volumes of assay mixture were added, and shake for 30 s. The plate was incubated at room temperature for 2 h. Then the HTRF signal on EnVision was readed.
(§3) Use equation (1) to fit the date in Excel to obtain the value of the inhibition rate. Inhibition rate (%)=(maximum value−signal value)/(maximum value−minimum value)*100 Equation(1):
(§4) IC50 determination was performed by fitting the data using GraphPad Prism 5.0 software and equation (2). Y=bottom+(Top−bottom)/(1+10^((Log IC50−X)*HillSlope)); Equation(2): wherein, Y represents the percentage of inhibition (%); X represents the concentration of test compounds.
(§5) The IC50 data of the examples were provided in the following table, wherein, A stands for IC50<100 nM; B stands for IC50 is 100-300 nM; C stands for IC50>300 nM.

BRD4(D2) = BRD4(D2) (Homo sapiens (Human), UniProt O60885); assay: Inhibitory activity against BRD4(D2), HTRF assay; type: binding
Experimental: as §1, §2, §3, §4, §5

Row | Compound | pIC50 (BRD4(D1); class symbols) | pIC50 (BRD4(D2); class symbols) | pIC50 (BRD4(D1); numeric values) | pIC50 (BRD4(D2); numeric values)
1 | Cc1nc2ncc(-c3cn(C)c(=O)c4[nH]ccc34)nc2n1Cc1ccc(Br)cc1 [Example 32, 4-(1-(4-bromobenzyl)-2-methyl-1H-imidazo[4,5-b]pyrazin-6-yl)-6-methyl-H-pyrrolo[2,3-c]pyridin-7(6H)-one] | > 7.00 | > 7.00 |  | 
2 | Cc1nc2ncc(-c3cn(C)c(=O)c4[nH]ccc34)nc2n1Cc1ccc(Cl)cc1F [Example 26, 4-(1-(2-fluoro-4-chlorobenzyl)-2-methyl-H-imidazo[4,5-b]pyrazin-6-yl)-6-methyl-H-pyrrolo[2,3-c]pyridin-7(6H)-one] | > 7.00 | > 7.00 |  | 
3 | Cn1cc(-c2cnc3ccn(Cc4c(Cl)cccc4Cl)c3c2)c2cc[nH]c2c1=O [Example 36, 4-(1-(2,6-dichlorobenzyl)-1H-pyrrolo[3,2-b]pyridin-6-yl)-6-methyl-1,6-dihydro-7H-pyrrolo[2,3-c]pyridin-7-one] |  |  | 7.82 | 8.54
4 | CCS(=O)(=O)Nc1cc(-c2cn(C)c(=O)c3[nH]ccc23)nc2c1ncn2Cc1ccccc1C(F)(F)F [Example 63, N-(5-(6-methyl-7-oxo-6,7-dihydro-H-pyrrolo[2,3-c]pyridin-4-yl)-3-(2-(trifluoromethyl)benzyl)-3H-imidazo[4,5-b]pyridin-7-yl)ethanesulfonamide] | > 7.00 | > 7.00 |  | 
5 | CCS(=O)(=O)Nc1cc(-c2cn(C)c(=O)c3[nH]ccc23)cc2c1nc(C)n2Cc1ccccc1 [Example 45, N-(1-benzyl-2-methyl-6-(6-methyl-7-oxo-6,7-dihydro-1H-pyrrolo[2,3-c]pyridin-4-yl)-1H-benzo[d]imidazol-4-yl)ethanesulfonamide] | > 7.00 | > 7.00 |  | 
6 | CCS(=O)(=O)Nc1cc(-c2cn(C)c(=O)c3[nH]ccc23)nc2c1nc(C)n2Cc1cc(F)cc(F)c1 [Example 67, N-(3-(3,5-difluorobenzyl)-2-methyl-5-(6-methyl-7-oxo-6,7-dihydro-H-pyrrolo[2,3-c]pyridin-4-yl)-3H-imidazo[4,5-b]pyridin-7-yl)ethanesulfonamide] | > 7.00 | > 7.00 |  | 
7 | COc1ccc(Cn2c(C)nc3ncc(-c4cn(Cc5nccs5)c(=O)c5[nH]ccc45)cc32)cc1 [Example 14, 4-(1-(4-methoxybenzyl)-2-methyl-1H-imidazo[4,5-b]pyridin-6-yl)-6-(thiazol-2-ylmethyl)-1,6-dihydro-7H-pyrrolo[2,3-c]pyridin-7-one] | 6.52 to 7.00 | < 6.52 |  | 
8 | COc1ccc(Cn2c(C)nc3ncc(-c4cn(C)c(=O)c5[nH]ccc45)cc32)cc1 [Example 2, 4-(1-(4-methoxybenzyl)-2-methyl-1H-imidazo[4,5-b]pyridin-6-yl)-6-methyl-1H-pyrrolo[2,3-c]pyridin-7(6H)-one] |  |  | 7.98 | 8.52
9 | Cc1nc2ncc(-c3cn(C)c(=O)c4[nH]ccc34)cc2n1Cc1ccc(Cl)cc1 [Example 1, 4-(1-(4-chlorobenzyl)-2-methyl-1H-imidazo[4,5-b]pyridin-6-yl)-6-methyl-1H-pyrrolo[2,3-c]pyridin-7(6H)-one] |  |  | 8.15 | 8.60
10 | COC(=O)c1ccc(Cn2c(C)nc3ncc(-c4cn(C)c(=O)c5[nH]ccc45)cc32)cc1 [Example 9, methyl 4-((2-methyl-6-(6-methyl-7-oxo-6,7-dihydro-1H-pyrrolo[2,3-c]pyridin-4-yl)-1H-imidazo[4,5-b]pyridin-1-yl)methyl)benzoate] | 6.52 to 7.00 | 6.52 to 7.00 |  | 
11 | Cc1nc2ncc(-c3cn(C)c(=O)c4[nH]ccc34)nc2n1Cc1ccccc1 [Example 22, 4-(1-benzyl-2-methyl-1H-imidazo[4,5-b]pyrazin-6-yl)-6-methyl-1H-pyrrolo[2,3-c]pyrid in-7(6H)-one] | > 7.00 | > 7.00 |  | 
12 | CCS(=O)(=O)Nc1cc(-c2cn(C)c(=O)c3[nH]ccc23)cc2c1nc(C)n2C(C)c1ccc(Cl)cc1 (centres unmarked) [Example 44, N-(1-(1-(4-chlorophenyl)ethyl)-2-methyl-6-(6-methyl-7-oxo-6,7-dihydro-H-pyrrolo[2,3-c]pyridin-4-yl)-1H-benzo[d]imidazol-4-yl)ethanesulfonamide] | > 7.00 | > 7.00 |  | 
13 | COc1ccc(Cn2c(C)nc3ncc(-c4cn(Cc5ccn[nH]5)c(=O)c5[nH]ccc45)cc32)cc1 [Example 15, 4-(1-(4-methoxybenzyl)-2-methyl-1H-imidazo[4,5-b]pyridin-6-yl)-6-(pyrazol-2-methyl)-1,6-dihydro-7H-pyrrolo[2,3-c]pyridin-7-one] | < 6.52 | 6.52 to 7.00 |  | 
14 | CCS(=O)(=O)Nc1cc(-c2cn(C)c(=O)c3[nH]ccc23)cc2c1nc(C)n2Cc1ccc(C(F)(F)F)c(F)c1 [Example 51, N-(2-methyl-6-(6-methyl-7-oxo-6,7-dihydro-1H-pyrrolo[2,3-c]pyridin-4-yl)-1-(3-fluoro-4-(trifluoromethyl)benzyl)-1H-benzo[d]imidazol-4-yl)ethanesulfonamide] | > 7.00 | > 7.00 |  | 
15 | Cc1nc2ncc(-c3cn(C)c(=O)c4[nH]ccc34)nc2n1Cc1cc(C(F)(F)F)ccc1F [Example 24, 4-(1-(2-fluoro-5-trifluoromethylbenzyl)-2-methyl-1H-imidazo[4,5-b]pyrazin-6-yl)-6-methyl-1H-pyrrolo[2,3-c]pyridin-7(6H)-one] | > 7.00 | > 7.00 |  | 
16 | CCS(=O)(=O)Nc1cc(-c2cn(C)c(=O)c3[nH]ccc23)cc2c1nc(C)n2Cc1cc(C(F)(F)F)ccc1F [Example 47, N-(2-methyl-6-(6-methyl-7-oxo-6,7-dihydro-1H-pyrrolo[2,3-c]pyridin-4-yl)-1-(2-fluoro-5-(trifluoromethyl)benzyl)-1H-benzo[d]imidazol-4-yl)ethanesulfonamide] | > 7.00 | > 7.00 |  | 
17 | COc1ccc(Cn2c(C)nc3ncc(-c4c[nH]c(=O)c5[nH]c(C)cc45)cc32)cc1 [Example 13, 4-(1-(4-methoxybenzyl)-2-methyl-1H-imidazo[4,5-b]pyridin-6-yl)-2-methyl-1,6-dihydro-7H-pyrrolo[2,3-c]pyridin-7-one] | 6.52 to 7.00 | 6.52 to 7.00 |  | 
18 | CCS(=O)(=O)Nc1cc(-c2cn(C)c(=O)c3[nH]ccc23)cc2c1nc(C)n2Cc1ccc(F)cc1Cl [Example 57, N-(1-(2-chloro-4-fluorobenzyl)-2-methyl-6-(6-methyl-7-oxo-6,7-dihydro-1H-pyrrolo[2,3-c]pyridin-4-yl)-1H-benzo[d]imidazol-4-yl)ethanesulfonamide] | > 7.00 | > 7.00 |  | 
19 | Cc1nc2ncc(-c3cn(C)c(=O)c4[nH]ccc34)nc2n1Cc1ccc(C(F)(F)F)c(Cl)c1 [Example 29, 4-(1-(3-chloro-4-trifluoromethylbenzyl)-2-methyl-1H-imidazo[4,5-b]pyrazin-6-yl)-6-methyl-1H-pyrrolo[2,3-c]pyridin-7(6H)-one] | > 7.00 | > 7.00 |  | 
20 | COc1ccc(Cn2c(C)nc3ncc(-c4cn(C)c(=O)c5[nH]ccc45)nc32)cc1 [Example 20, 4-(1-(4-methoxybenzyl)-2-methyl-H-imidazo[4,5-b]pyrazin-6-yl)-6-methyl-1H-pyrrol o[2,3-c]pyridin-7(6H)-one] |  |  | 7.89 | 8.60
21 | (+)-JQ1 [reference compound] |  |  | 7.80 | 
